Data from patent publication US8962602B2, “Anticancer steroidal lactones unsaturated in position 7 (8)” (Pharma Mar, S.A., priority 2010, dated 2015).
“And” between values parts separate entries of the source, which are not always exact repeats. Equal entries are not always repeated. Where two headings read alike, the source gives them in different places.

How the values were obtained:
Test in all cases: Cytotoxicity assay, SRB colorimetric assay
Assay type in all cases: cell-based
A549 = conditions: for TGI / GI50: A549 lung carcinoma (NSCLC), 72 hours treatment; for TGI: total cell growth inhibition (cytostatic effect); for GI50 / CC50: Homo sapiens, A549, 72 h; for GI50: 50% cell growth inhibition; for CC50: read-out: LC50, A549 lung carcinoma (NSCLC), 72 hours treatment, 50% net cell killing (cytotoxic effect)
Excerpt: (§1) The aim of this assay is to evaluate the in vitro cytostatic (ability to delay or arrest tumor cell growth) or cytotoxic (ability to kill tumor cells) activity of the samples being tested.
(§2) A colorimetric assay, using sulforhodamine B (SRB) reaction has been adapted to provide a quantitative measurement of cell growth and viability (following the technique described by Skehan et al. J. Natl. Cancer Inst. 1990, 82, 1107-1112).
(§3) This form of assay employs SBS-standard 96-well cell culture microplates (Faircloth et al. Methods in Cell Science, 1988, 11(4), 201-205; Mosmann et al, Journal of Immunological Methods, 1983, 65(1-2), 55-63). All the cell lines used in this study were obtained from the American Type Culture Collection (ATCC) and derive from different types of human cancer.
(§4) Cells were maintained in Dulbecco's Modified Eagle Medium (DMEM) supplemented with 10% Fetal Bovine Serum (FBS), 2 mM L-glutamine, 100 U/mL penicillin and 100 U/mL streptomycin at 37° C., 5% CO2 and 98% humidity. For the experiments, cells were harvested from subconfluent cultures using trypsinization and resuspended in fresh medium before counting and plating.
(§5) Cells were seeded in 96 well microtiter plates, at 5×10^3 cells per well in aliquots of 150 μL, and allowed to attach to the plate surface for 18 hours (overnight) in drug free medium. After that, one control (untreated) plate of each cell line was fixed (as described below) and used for time zero reference value. Culture plates were then treated with test compounds (50 μL aliquots of 4× stock solutions in complete culture medium plus 4% DMSO) using ten serial dilutions (concentrations ranging from 10 to 0.00262 μg/mL) and triplicate cultures (1% final concentration of DMSO). After 72 hours treatment, the antitumor effect was measured by using the SRB methodology: Briefly, cells were washed twice with PBS, fixed for 15 min in 1% glutaraldehyde solution at room temperature, rinsed twice in PBS, and stained in 0.4% SRB solution for 30 min at room temperature. Cells were then rinsed several times with 1% acetic acid solution and air-dried at room temperature. SRB was then extracted in 10 mM trizma base solution and the absorbance measured in an automated spectrophotometric plate reader at 490 nm. Effects on cell growth and survival were estimated by applying the NCl algorithm (Boyd M R and Paull K D. Drug Dev. Res. 1995, 34, 91-104).
(§6) Using the mean±SD of triplicate cultures, a dose-response curve was automatically generated using nonlinear regression analysis. Three reference parameters were calculated (NCI algorithm) by automatic interpolation: GI50=compound concentration that produces 50% cell growth inhibition, as compared to control cultures; TGI=total cell growth inhibition (cytostatic effect), as compared to control cultures, and LC50=compound concentration that produces 50% net cell killing (cytotoxic effect).

HT29 = conditions: for TGI: total cell growth inhibition (cytostatic effect); for GI50: 50% cell growth inhibition
Excerpt: as §1, §2, §3, §4, §5, §6

MDA-MB-231 = conditions: for GI50: 50% cell growth inhibition; for TGI: total cell growth inhibition (cytostatic effect)
Excerpt: as §1, §2, §3, §4, §5, §6

[1] = HT29 colorectal adenocarcinoma, 72 hours treatment
[2] = Homo sapiens, HT-29, 72 h, HT29 colorectal adenocarcinoma, 72 hours treatment
[3] = Homo sapiens, HT-29, 72 h, read-out: LC50, HT29 colorectal adenocarcinoma, 72 hours treatment, 50% net cell killing (cytotoxic effect)
[4] = Homo sapiens, MDA-MB-231, 72 h, MDA-MB-231 breast adenocarcinoma, 72 hours treatment
[5] = Homo sapiens, MDA-MB-231, 72 h, read-out: LC50, MDA-MB-231 breast adenocarcinoma, 72 hours treatment, 50% net cell killing (cytotoxic effect)
[6] = MDA-MB-231 breast adenocarcinoma, 72 hours treatment

Row | Structure (SMILES) | TGI (A549) | GI50 (A549) | CC50 (A549) | TGI (HT29; [1]) | GI50 (HT29; [2]) | LC50 (50% net cell killing) (HT29; [3]) | GI50 (MDA-MB-231; [4]) | CC50 (MDA-MB-231; [5]) | TGI (MDA-MB-231; [6]) | GI50 (HT29; [1]) | LC50 (50% net cell killing) (HT29; read-out: LC50, HT29 colorectal adenocarcinoma, 72 hours treatment, 50% net cell killing (cytotoxic effect)) | GI50 (MDA-MB-231; [6]) | CC50 (MDA-MB-231; read-out: LC50, MDA-MB-231 breast adenocarcinoma, 72 hours treatment, 50% net cell killing (cytotoxic effect))
1 | CO[C@H]1[C@H]2O[C@H]2[C@]2(C=O)[C@H]3CC[C@]4(C)[C@@H](c5ccc(=O)oc5)C(Cl)(Cl)C[C@]4(O)C3=CC[C@H]2C1(C)C [Aegomycin A] | 4.39E−9 Molar | 3.82 nM | 5.35 nM | 3.25E−8 Molar | 10.5 nM | 115 nM | 19.1 nM | 61.1 nM | 3.63E−8 Molar | – | – | – | –
2 | CO[C@H]1[C@H]2O[C@H]2[C@]2(CO)[C@H]3CC[C@]4(C)[C@@H](c5ccc(=O)oc5)C(Cl)(Cl)C[C@]4(O)C3=CC[C@H]2C1(C)C [Aegomycin B] | 7.61E−9 Molar | 5.9 nM | 11.4 nM | 2.28E−7 Molar | 30.4 nM | 3040 nM | 76.1 nM | 381 nM | 1.67E−7 Molar | – | – | – | –
3 | CC1(C)C(=O)C=C[C@]2(C)[C@H]3CC[C@]4(C)[C@@H](c5ccc(=O)oc5)C(Cl)(Cl)C[C@]4(O)C3=CC[C@@H]12 [Aegomycin C] | 1.72E−8 Molar | 7.54 nM | 41.9 nM | 1.05E−7 Molar | 9.84 nM | > 20900 nM | 62.8 nM | 691 nM | 1.97E−7 Molar | – | – | – | –
4 | CO[C@H]1C=C[C@]2(C)[C@H]3C[C@@H](O)[C@]4(C)[C@@H](c5ccc(=O)oc5)C(Cl)(Cl)C[C@]4(O)C3=CC[C@H]2C1(C)C [Aegomycin D] | 1.28E−8 Molar | 8.64 nM | 18.3 nM | 1.35E−7 Molar | 31.4 nM | 1450 nM | 64.8 nM | 173 nM | 9.81E−8 Molar | – | – | – | –
5 | CO[C@H]1C=C[C@]2(C)[C@H]3CC[C@]4(C)[C@@H](c5ccc(=O)oc5)C(Cl)(Cl)C[C@]4(O)C3=CC[C@H]2C1(C)C [Aegomycin E] | 5.67E−8 Molar | 42.6 nM | 75 nM | 4.86E−7 Molar | 118 nM | 5270 nM | 197 nM | 750 nM | 3.65E−7 Molar | – | – | – | –
6 | CC1(C)C(=O)C=C[C@]2(C)[C@H]3CC[C@]4(C)[C@@H](c5ccc(=O)oc5)[C@@H](Cl)C[C@]4(O)C3=CC[C@@H]12 [Aegomycin F] | – | – | – | 4.06E−7 Molar and 2.03E−7 Molar | 65.5 nM | 3160 nM | 88 nM | 948 nM | 2.71E−7 Molar and 2.03E−7 Molar | 36.5 nM | 4860 nM | 81.1 nM | 608 nM
7 | CO[C@H]1C=C[C@]2(C)[C@H]3CC[C@]4(C)[C@@H](c5ccc(=O)oc5)[C@@H](Cl)C[C@]4(O)C3=CC[C@H]2C1(C)C [Aegomycin G] | 6.32E−8 Molar | 39.2 nM | 111 nM | 6.75E−7 Molar | 146 nM | 3920 nM | 170 nM | 1290 nM | 4.36E−7 Molar | – | – | – | –
